Data reported in patent US20220073475A1, “5-MEMBERED HETEROARYL COMPOUNDS CONTAINING A HYDROXAMATE MOIETY AND THEIR USE” (UNIVERSITE DE LILLE, priority 2019, published 2022).
Where “and” joins values, the source holds several entries; their conditions need not be identical. Equal entries are not always repeated.

Test system: OPM2 cells
Assay: CFZ potency increase, ratio of CC50 of CFZ alone / with compound
Format: cell-based, human
Text: Human multiple myeloma cells OPM2 (ACC 50, DSMZ) are maintained at 0.3-0.7 10^6 cells/mL in RPMI1640 medium supplemented with GlutaMAX™, 10% fetal bovine serum and 1% penicillin-streptomycin.
We developed a cell-based, high content assay allowing the rapid detection and quantification of apoptotic cells. Caspase-3/7 activity was detected in real-time using the NucView™ 488 Caspase-3 substrate (Biotium), where the caspase-3/7 substrate peptide sequence DEVD is attached to a nucleic acid dye. The NucView™ 488 reagent crosses the plasma membrane to enter the cytoplasm, where the dye is unable to bind to DNA and remains non-fluorescent. Once the substrate has been cleaved by activated caspase-3/7 in apoptotic cells, the high-affinity DNA dye is released and migrates to the cell nucleus to stain the nucleus with a bright green fluorescence. All cell nuclei were also labeled with Hoechst 33342 (Ozyme).
For OPM2, briefly, nanoliters of compound and cytotoxic agent in DMSO stock solutions were first transferred and combined in 384-microtiter well plate using an Echo555 liquid handler (Labcyte). The exact volume of each solution to be transferred was calculated to achieve subsequently the target concentration in the 70 μL volume incubate. Final DMSO content was maintained at 0.2%. Then, 70 μL of cells treated with 1 μM NucView™ 488 and 20 ng/mL Hoechst 33342 were distributed to the plates to obtain a final density of 12,000 cells per well. The microplates were incubated at 37° C. and 5% CO2 in an automated LiCONiC STR240 UB cell incubator, and images were acquired at various times at 405 nm and 488 nm with the high-resolution automated confocal microscope INCell 6000 (GE). Four fields per well were read with the 20× objective in a confocal mode. The BioCel workstation was managed by VWorks automation control software
For all cells, Columbus software (Perkin) was used for image quantification and analysis. First, Hoechst 33342 staining was used for an automated detection of nuclei, in which the mean fluorescence intensity for NucView™ 488 was quantified. Inspection of control cells at initial time was used to set a threshold level of NucView™ 488 fluorescence to separate non apoptotic cells from apoptotic cells. Finally, for each well, the result was expressed as percentage of apoptotic cells in the total cell population. CC50 values were calculated from concentration-response curves by a nonlinear regression analysis at four parameters using Excel Fit or GraphPad Prim softwares.
Activity=(% of apoptotic cells with cytotoxic agent in combination with compound of the invention)/(% of apoptotic cells with cytotoxic agent alone). • Ratio of CC50: The CC50 of the cytotoxic agent was calculated in absence and in presence of a compound of the invention.
Activity=(CC50 of agent alone)/(CC50 of agent with compound). • Ratio of AUC. Activity=(Area of the dose-concentration curve of cytotoxic agent combined with one concentration of compound)/(Area of the dose-concentration curve of cytotoxic agent alone). (Lehar J. et al, 2008 (molecular systems biology 4:215)).

[1] = OPM2, compound at 7.5 μM (Table 5)

Row | SMILES | Activity: ratio (CC50 of CFZ alone)/(CC50 of CFZ in combination with compound of the invention) [1] | Activity: ratio (CC50 of CFZ alone)/(CC50 of CFZ in combination with compound of the invention) (OPM2, compound at 7.5 μM (Table 6))
1 | O=C(C[C@@H](Cc1c[nH]c2ccccc12)n1cc(C(Cc2ccc(OCc3ccccc3)cc2)NC(=O)c2ccc(F)c(F)c2)nn1)NO (stereo partly drawn) [Compound 89, N-[2-(4-benzyloxyphenyl)-1-[1-[(1R)-3-(hydroxyamino)-1-(1H-indol-3-ylmethyl)-3-oxo-propyl]triazol-4-yl]ethyl]-3,4-difluoro-benzamide] | 7.6 | 7.6
2 | O=C(CC(Cc1ccc2ccccc2c1)c1nc(CNC(=O)c2ccccc2)no1)NO (stereo not drawn) [Compound 28, N-[5-(1-hydroxycarbamoylmethyl-2-naphthalen-2-yl-ethyl)-[1,2,4]oxadiazol-3-ylmethyl]-benzamide] | 2.0 | –
3 | CC(NC(=O)c1ccc(F)c(F)c1)c1cn([C@@H](CC(=O)NO)Cc2c[nH]c3ccccc23)nn1 (stereo partly drawn) [Compound 91, 3,4-difluoro-N-[1-[1-[(1R)-3-(hydroxyamino)-1-(1H-indol-3-ylmethyl)-3-oxo-propyl]triazol-4-yl]ethyl]benzamide] | 1.4 | –
4 | CN(Cc1cn([C@@H](CC(=O)NO)Cc2ccc3ccccc3c2)nn1)C(=O)c1ccc(F)cc1 [Compound 185, (R)-4-fluoro-N-((1-(4-(hydroxyamino)-1-(naphthalen-2-yl)-4-oxobutan-2-yl)-1H-1,2,3-triazol-4-yl)methyl)-N-methylbenzamide] | 1.8 | –
5 | O=C(C[C@@H](Cc1ccc2sccc2c1)n1cc(CNC(=O)c2ccc(F)cc2)nn1)NO [Compound 173, (R)—N-((1-(1-(benzo[b]thiophen-5-yl)-4-(hydroxyamino)-4-oxobutan-2-yl)-1H-1,2,3-triazol-4-yl)methyl)-4-fluorobenzamide] | 2.1 | –
6 | O=C(C[C@@H](Cc1ccc2ccccc2c1)n1nncc1CNC(=O)C1CCCCC1)NO [Compound 13, (R)-Cyclohexanecarboxylic acid [3-(1-hydroxycarbamoylmethyl-2-naphthalen-2-yl-ethyl)-3H-[1,2,3]triazol-4-ylmethyl]-amide] | 1.2 | –
7 | O=C(C[C@@H](Cc1c[nH]c2ccccc12)n1cc([C@H](CO)NC(=O)c2ccc(F)c(F)c2)nn1)NO [Compound 92, 3,4-difluoro-N-[(1R)-2-hydroxy-1-[1-[(1R)-3-(hydroxyamino)-1-(1H-indol-3-ylmethyl)-3-oxo-propyl]triazol-4-yl]ethyl]benzamide] | 1.7 | –
8 | O=C(C[C@@H](Cc1ccc2c(c1)CCCC2)n1cc(CNC(=O)c2ccc(F)cc2)nn1)NO [Compound 165, (R)-4-fluoro-N-((1-(4-(hydroxyamino)-4-oxo-1-(5,6,7,8-tetrahydronaphthalen-2-yl)butan-2-yl)-1H-1,2,3-triazol-4-yl)methyl)benzamide] | 1.9 | –
9 | CC(C)CN(Cc1cn([C@@H](CC(=O)NO)Cc2c[nH]c3ccccc23)nn1)C(=O)c1ccc(F)c(F)c1 [Compound 98, 3,4-difluoro-N-[[1-[(1R)-3-(hydroxyamino)-1-(1H-indol-3-ylmethyl)-3-oxo-propyl]triazol-4-yl]methyl]-N-isobutyl-benzamide] | 2.0 | –
10 | O=C(C[C@@H](Cc1cnc2ccccc2c1)n1cc(CNC(=O)c2ccc(F)c(F)c2)nn1)NO [Compound 143, (R)-3,4-difluoro-N-((1-(4-(hydroxyamino)-4-oxo-1-(quinolin-3-yl)butan-2-yl)-1H-1,2,3-triazol-4-yl)methyl)benzamide] | 1.1 | –
11 | Cn1ccc2cc(C[C@H](CC(=O)NO)n3cc(CNC(=O)c4ccc(F)cc4)nn3)ccc21 [Compound 177, (R)-4-fluoro-N-((1-(4-(hydroxyamino)-1-(1-methyl-1H-indol-5-yl)-4-oxobutan-2-yl)-1H-1,2,3-triazol-4-yl)methyl)benzamide] | 1.7 | –
12 | O=C(C[C@@H](Cc1c[nH]c2ccccc12)n1cc([C@@H]2CCCN2C(=O)c2ccc(F)c(F)c2)nn1)NO [Compound 88, (3R)-3-[4-[(2S)-1-(3,4-difluorobenzoyl)pyrrolidin-2-yl]triazol-1-yl]-4-(1H-indol-3-yl)butanehydroxamic acid] | 1.7 | –
13 | CC(C)CCN(Cc1cn([C@@H](CC(=O)NO)Cc2c[nH]c3ccccc23)nn1)C(=O)c1ccc(F)c(F)c1 [Compound 99, 3,4-difluoro-N-[[1-[(1R)-3-(hydroxyamino)-1-(1H-indol-3-ylmethyl)-3-oxo-propyl]triazol-4-yl]methyl]-N-isopentyl-benzamide] | 2.5 | –
14 | O=C(C[C@@H](Cc1ccc2ccccc2c1)n1cc(CC(=O)Nc2ccc(F)c(F)c2)nn1)NO [Compound 74, 3-{4-[(3,4-Difluoro-phenylcarbamoyl)-methyl]-[1,2,3]triazol-1-yl}-N-hydroxy-4-naphthalen-2-yl-butyramide] | 1.6 | –
15 | CN(Cc1cn([C@@H](CC(=O)NO)Cc2ccc3ccccc3c2)nn1)C(=O)c1ccc(F)c(F)c1 [Compound 87] | 1.7 | –
16 | O=C(C[C@@H](Cc1ccc2cccnc2c1)n1cc(CNC(=O)c2ccc(F)c(F)c2)nn1)NO [Compound 170, (R)-3,4-difluoro-N-((1-(4-(hydroxyamino)-4-oxo-1-(quinolin-7-yl)butan-2-yl)-1H-1,2,3-triazol-4-yl)methyl)benzamide] | 1.5 | –
17 | CC(NC(=O)c1ccc(F)cc1)c1cn([C@@H](CC(=O)NO)Cc2ccc3c(c2)CCCC3)nn1 (stereo partly drawn) [Compound 167, 4-fluoro-N-(1-(1-((R)-4-(hydroxyamino)-4-oxo-1-(5,6,7,8-tetrahydronaphthalen-2-yl)butan-2-yl)-1H-1,2,3-triazol-4-yl)ethyl)benzamide] | 2.5 | –
18 | O=C(C[C@@H](Cc1ccc2ccccc2c1)n1cc(C2COCCN2C(=O)c2ccc(F)c(F)c2)nn1)NO (stereo partly drawn) [Compound 95, (3R)-3-[4-[4-(3,4-difluorobenzoyl)morpholin-3-yl]triazol-1-yl]-4-(2-naphthyl)butanehydroxamic acid] | 2.1 | –
19 | O=C(C[C@@H](Cc1ccc2ccsc2c1)n1cc(CNC(=O)c2ccc(F)cc2)nn1)NO [Compound 174, (R)—N-((1-(1-(benzo[b]thiophen-6-yl)-4-(hydroxyamino)-4-oxobutan-2-yl)-1H-1,2,3-triazol-4-yl)methyl)-4-fluorobenzamide] | 2.0 and 1.5 | –
20 | O=C(C[C@@H](Cc1ccc2ccccc2c1)n1cc(COCc2ccccc2)nn1)NO [Compound 23, (R)-3-(4-benzyloxymethyl-[1,2,3]triazol-1-yl)-N-hydroxy-4-naphthalen-2-yl-butyramide] | 1.1 | –
21 | CC(NC(=O)c1ccc(F)c(F)c1)c1cn([C@@H](CC(=O)NO)Cc2ccc3ccccc3c2)nn1 (stereo in doubt) [Compound 78, 3,4-difluoro-N-[1-[1-[3-(hydroxyamino)-1-(2-naphthylmethyl)-3-oxo-propyl]triazol-4-yl]ethyl]benzamide] | 2.0 | –
22 | O=C(NCc1noc(C(Cc2ccc3ccccc3c2)C(=O)NO)n1)c1ccc(F)cc1 (stereo not drawn) [Compound 44, 4-Fluoro-N-[5-(1-hydroxycarbamoyl-2-naphthalen-2-yl-ethyl)-[1,2,4]oxadiazol-3-ylmethyl]-benzamide] | 1.2 | –
23 | O=C(C[C@@H](Cc1ccc2ccccc2c1)n1cc(CNS(=O)(=O)c2ccc(F)cc2)nn1)NO [Compound 6, (R)-3-{4-[(4-Fluoro-benzenesulfonylamino)-methyl]-[1,2,3]triazol-1-yl}-N-hydroxy-4-naphthalen-2-yl-butyramide] | 1.3 | –
